# Results: article PMC9866218, “Characterization and Chemical Synthesis of Cm39 (α-KTx 4.8): A Scorpion Toxin That Inhibits Voltage-Gated K^+ Channel KV1.2 and Small- and Intermediate-Conductance Ca^2+-Activated K^+ Channels KCa2.2 and KCa3.1” (Toxins, 2023)
# Entries after “also recorded” stand apart in the source; their conditions may differ.
# Legend:
# Type in all cases: cell-based, human
# Conditions in all cases: CHO cells
# [1] = tested on: hKV1.6
# Description: (§1) We, therefore, aimed at testing the pharmacological activity of sCm39 on a battery of various potassium and sodium ion channels. Among the tested channels were six members of human voltage-gated K^+ (hKV) channels from Shaker family, hKV1.1-hKV1.6 (Figure 3A–F) and three members of Ca^2+-activated potassium channel; hKCa2.2 (SK2, Figure 3I), the small-conductance Ca^2+-activated channel; hKCa3.1 (IKCa1, SK4. Figure 3J), the intermediate-conductance Ca^2+-activated channel expressed in T lymphocytes; and mKCa1.1 (BK, Slo1, MaxiK, Figure 3H), the large-conductance voltage- and Ca^2+-activated channel of mice. In addition, we also screened the effect of Cm39 on hKV11.1 (hERG1, Figure 3G), a voltage-gated cardiac K^+ channel, and two human voltage-gated sodium (hNaV) channels, hNaV1.4 (Figure 3K) and hNaV1.5 (Figure 3L), expressed in skeletal and cardiac muscles, respectively. These ion channels were heterologously expressed in the CHO or HEK cell lines except for KV1.3. Human peripheral T lymphocytes. They were stimulated with Phytohemagglutinin A (PHA) to increase the KV1.3 channel expression, and Ca^2+-free intracellular solution was used to avoid KCa3.1 channel activation. Appropriate depolarization protocols were used to record ionic currents in voltage-clamped cells (see Figure 3 insets and Material and Methods for details). Freshly dissolved sCm39 in extracellular solution was applied at 1 µM concentration on the cell using a custom-built micro-perfusion system at ~200 µL/min flow rate.
# (§2) Chinese hamster ovary (CHO) cells (gift from Yosef Yarden, Weizmann Institute of Science, Rehovot, Israel) were maintained by culturing in Dulbecco’s modified Eagle medium (DMEM, Gibco) supplemented with 2 mM L-glutamine, 10% FBS, 100 µg/mL streptomycin and 100 U/mL penicillin-g (Sigma-Aldrich) at a density of 0. 5−1×10^6 cells per mL in a humidified incubator at 37 °C and 5% CO2. Cells were passaged 3 times in a week following a 2–5 min incubation in 0.05% trypsin-EDTA solution at 37 °C. Cultures were used up to passage number 20. PCR-based tests were routinely used to detect mycoplasma infection, only mycoplasma-free cultures were used for experiments.
# (§3) Those plasmids which lack a fluorescent tag were co-transfected with a plasmid encoding GFP. Transfections were performed at a GFP:channel DNA molar ratio of 1:10 using the Lipofectamine 2000 kit (Invitrogen) according to the manufacturer’s protocol. […] Generally, currents were recorded 24 to 48 h post transfection.
# (§4) For the measurement of KV1.x, mKCa1.1 and NaV1.x currents the extracellular solution was composed of (in mM) 145 NaCl, 5 KCl, 2.5 CaCl2, 1 MgCl2, 10 HEPES and 5.5 glucose, pH 7.35. In the HK-150 and Na^+-free bath solution bath all Na^+ was substituted by K^+ or Choline-Cl, respectively, other ingredients remained unchanged. In the various TEA^+-containing solutions, Na^+ was substituted by tetraethylammonium-Cl in equimolar concentration (Figure 3). The bath solution for KCa2.2 and KCa3.1 consisted of (in mM) 145 L-Aspartic Na^+ salt, 5 KCl, 2.5 CaCl2, 1 MgCl2, 5.5 glucose and 10 HEPES, pH 7.4 and for KV11.1 (in mM) 140 Choline-Cl, 5 KCl, 2 MgCl2, 2 CaCl2, 10 HEPES, 20 glucose and 0.1 CdCl2, pH 7.35. The osmolarity of bath solutions was ranging between 302 to 308 mOsm/L. A total of 0.1 mg/mL bovine serum albumin (BSA, Sigma-Aldrich, Budapest, Hungary) was added to all the bath solutions before the patch-clamp assay to avoid toxin adsorption to the plastic surfaces of the perfusion system. Internal or pipette solution for recording KV1.x and mKCa1.1 currents consisted of (in mM) 140 KF, 2 MgCl2, 1 CaCl2, 11 EGTA and 10 HEPES, pH 7.22.
# [2] = tested on: hKV1.1
# Description: as §1, §2, §3, §4
# [3] = tested on: hKV1.5; assay: Whole-cell patch-clamp, block of KV1.5 current
# Description: as §1, with “Appropriate depolarization protocols were used to record ionic currents in voltage-clamped cells (see Figure 3 insets and Material and Methods for details). Freshly dissolved sCm39 in extracellular solution was applied at 1 µM concentration on the cell using a custom-built micro-perfusion system at ~200 µL/min flow rate.” left out
# (§5) Those plasmids which lack a fluorescent tag were co-transfected with a plasmid encoding GFP. […] Generally, currents were recorded 24 to 48 h post transfection. […]
# [4] = tested on: hKV1.4; assay: Whole-cell patch-clamp, block of KV1.4 current
# Description: as §1, with “Appropriate depolarization protocols were used to record ionic currents in voltage-clamped cells (see Figure 3 insets and Material and Methods for details). Freshly dissolved sCm39 in extracellular solution was applied at 1 µM concentration on the cell using a custom-built micro-perfusion system at ~200 µL/min flow rate.” left out
# as §5
smiles,measurement,setting,value
CC[C@H](C)[C@@H]1NC(=O)[C@H](C)NC(=O)[C@H](C)NC(=O)[C@H](CCCCN)NC(=O)[C@@H]2CSSC[C@@H](C(=O)N[C@@H](Cc3ccc(O)cc3)C(=O)N[C@@H](Cc3ccc(O)cc3)C(=O)O)NC(=O)[C@H](CCCCN)NC(=O)[C@@H]3CSSC[C@H](NC(=O)[C@H](CCC(=O)O)NC(=O)[C@H](CO)NC(=O)[C@H](CO)NC(=O)[C@H](CO)NC(=O)[C@H](CCCCN)NC(=O)[C@@H](NC(=O)[C@H](CCCCN)NC(=O)[C@H](Cc4c[nH]cn4)NC(=O)[C@H](CC(N)=O)NC(=O)[C@@H](NC(=O)[C@H](Cc4ccccc4)NC(=O)[C@@H](N)[C@@H](C)O)[C@@H](C)CC)CSSC[C@H](NC(=O)[C@H](CCCCN)NC(=O)CNC(=O)[C@H](CO)NC(=O)[C@H](C)NC(=O)[C@H](CCCNC(=N)N)NC(=O)CNC1=O)C(=O)N[C@@H]([C@@H](C)CC)C(=O)N[C@@H](CC(N)=O)C(=O)N[C@@H](CO)C(=O)N[C@@H]([C@@H](C)O)C(=O)N3)C(=O)N[C@@H](CC(C)C)C(=O)N1CCC[C@H]1C(=O)N[C@@H](C)C(=O)N2 [Cm39],inhibition (in words),[1]; 1 μM,does not inhibit; also recorded: did not show any effect
same,decrease in current,"[1]; 1 µM, 3−5 min, n = 3−5",< 3%
same,inhibition (in words),[2]; 1 μM,does not inhibit; also recorded: did not show any effect
same,decrease in current,"[2]; 1 µM, 3−5 min, n = 3−5",< 3%
same,inhibition (in words),[3]; 1 μM,does not inhibit; also recorded: did not show any effect
same,decrease in current,"[3]; 1 µM, 3−5 min, n = 3−5",< 3%
same,inhibition (in words),[4]; 1 μM,does not inhibit; also recorded: did not show any effect
same,decrease in current,"[4]; 1 µM, 3−5 min, n = 3−5",< 3%
